Data on 24 compounds can be found in PMC9963587 (Molecules, 2023).

In data set [1] the test system is LASVpv (LASV pseudotyped virus bearing LASV GPC, Josiah strain). The data set can be described thus: microbe, parasite or virus in culture. In kind it is cell-based, Lassa virus.
The nature of data set [2]: in vitro. The settings on record: human.
Data set [3] deals with LASV GP2 (Lassa virus, UniProt P08669). The data set can be described thus: biochemical. The settings on record: for kon: read-out: ka. In kind it is binding.
Chain of LASV GP2 (P08669 260-491 limits assumed): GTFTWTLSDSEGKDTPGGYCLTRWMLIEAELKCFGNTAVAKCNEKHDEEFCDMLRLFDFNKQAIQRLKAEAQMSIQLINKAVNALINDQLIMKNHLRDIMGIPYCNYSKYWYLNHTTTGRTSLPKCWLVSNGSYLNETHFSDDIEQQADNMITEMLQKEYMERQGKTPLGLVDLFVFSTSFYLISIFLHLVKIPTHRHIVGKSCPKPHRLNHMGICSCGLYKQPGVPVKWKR
The mark [4] stands for this setting: Mammarenavirus lassaense, HEK293, 48 h.

Each structure is given as a SMILES string. Where two headings read alike, the source gives them in different places.

For `COc1ccc(-n2cnc3cc(NCc4ccc(C(C)(C)C)cc4)ccc32)cc1` [Compound 13f, N-(4-(tert-butyl)benzyl)-1-(4-methoxyphenyl)-1H-benzo[d]imidazol-5-amine], the melting point lay within 175.8 to 176.9 °C. The compound also had an IC50 in data set [1] (setting [4]) of 11.9 nM. In addition, the CC50 in data set [2] was 102 µM. Besides, in data set [3], the Kd is 173 nM, the kd was found to be 0.03 s⁻¹ and the kon was determined as 178000 M⁻¹ s⁻¹.

Turning to `COc1ccc(-n2cnc3cc(NCc4cc(OC)c(OC)cc4OC)ccc32)cc1` [Compound 13d, 1-(4-methoxyphenyl)-N-(2,4,5-trimethoxybenzyl)-1H-benzo[d]imidazol-5-amine], the melting point lay within 167.8 to 169.8 °C. The compound also returned an IC50 in data set [1] (setting [4]) of 13.8 nM. In data set [2], this compound showed a CC50 of 135 µM. Also, in data set [3], the Kd was found to be 656 nM, the kd was 0.03 s⁻¹ and the kon is 56700 M⁻¹ s⁻¹.

For the compound `CC(C)Oc1ccc(-n2cnc3cc(/C=C\c4ccc5ccccc5c4)ccc32)cc1` [Compound 7h−Z, (Z)-1-(4-isopropoxyphenyl)-5-(2-(naphthalene-2-yl)vinyl)-1H-benzo[d]imidazole], the melting point was in the range of 170 to 171 °C. For the same compound, in data set [1], half-maximal inhibition (IC50) was put at 7.58 nM. For the same compound, the IC50 in data set [1] (setting [4]) is no more than 15 nM. In data set [2], the CC50 is 18.9 µM. For the same compound, in data set [3], the Kd was found to be 129 nM, the kd turned out to be 0.03 s⁻¹ and the kon turned out to be 294000 M⁻¹ s⁻¹.

`CC(C)Oc1ccc(-n2cnc3cc(/C=C\c4ccc(C(C)(C)C)cc4)ccc32)cc1` [Compound 7a−Z, (Z)-5-(4-(tert-butyl)styryl)-1-(4-isopropoxyphenyl)-1H-benzo[d]imidazole] displayed a melting point of 172 to 174 °C. In data set [2], this compound showed a CC50 of 3.01 µM. In data set [3], the Kd is 146 nM, the kd is 0.04 s⁻¹ and the kon was determined as 328000 M⁻¹ s⁻¹.

Regarding `Cc1ccc(/C=C/c2ccc3c(c2)ncn3-c2ccc(OC(C)C)cc2)cc1` [Compound 7c−E, (E)-1-(4-isopropoxyphenyl)-5-(4-methylstyryl)-1H-benzo[d]imidazole], the melting point was 168 to 170 °C. Besides, in data set [1] (setting [4]), the 50% inhibitory concentration (IC50) was greater than 50 nM. For the same compound, the CC50 in data set [2] was greater than 100 µM.

For the compound `CC(C)Oc1ccc(-n2cnc3cc(/C=C\c4ccc(C(F)(F)F)cc4)ccc32)cc1` [Compound 7g−Z, (Z)-1-(4-isopropoxyphenyl)-5-(4-(trifluoromethyl)styryl)-1H-benzo[d]imidazole], the melting point is 165 to 166 °C. Further, in data set [1] (setting [4]), the IC50 was found to be 29.1 nM. The compound further came in with a CC50 in data set [2] of 24.4 µM. In data set [3], this compound gave a Kd of 2700 nM and a kd of 0.13 s⁻¹.

In turn, `COc1ccc(-n2cnc3cc(NCc4ccc(O)c(OC)c4)ccc32)cc1` [Compound 13b, 2-methoxy-4-(((1-(4-methoxyphenyl)-1H-benzo[d]imidazol-5-yl)amino)methyl)phenol] displayed a melting point of 157.6 to 159 °C. The compound also returned an IC50 in data set [1] (setting [4]) of 65.8 nM. The compound also showed a CC50 in data set [2] of 87.3 µM. Besides, in data set [3], the Kd stood at 3930 nM, the kd is 0.20 s⁻¹ and the kon is 52300 M⁻¹ s⁻¹.

With `CC(C)Oc1ccc(-n2cnc3cc(/C=C/c4ccc(C(C)(C)C)cc4)ccc32)cc1` [Compound 7a−E, (E)-5-(4-(tert-butyl)styryl)-1-(4-isopropoxyphenyl)-1H-benzo[d]imidazole], the melting point lay in the range of 161 to 162 °C. In data set [1] (setting [4]), this compound had a half-maximal inhibitory concentration (IC50) greater than 50 nM. In data set [2], this compound displayed a CC50 greater than 100 µM.

The compound `CC(C)Oc1ccc(-n2cnc3cc(/C=C\c4ccc(C#N)cc4)ccc32)cc1` [Compound 7b−Z, (Z)-4-(2-(1-(4-isopropoxyphenyl)-1H-benzo[d]imidazol-5-yl)vinyl) benzonitrile] registered a melting point of 165 to 166 °C. Besides, the IC50 in data set [1] (setting [4]) is greater than 50 nM. For the same compound, in data set [2], the CC50 stood at 23.6 µM. In data set [3], the Kd was 73400 nM, the kd worked out at 0.28 s⁻¹ and the kon amounted to 3910 M⁻¹ s⁻¹.

Turning to `CCOc1ccc(/C=C/c2ccc3c(c2)ncn3-c2ccc(OC(C)C)cc2)cc1` [Compound 7d−E, (E)-5-(4-ethoxystyryl)-1-(4-isopropoxyphenyl)-1H-benzo[d]imidazole], the melting point is 152 to 153 °C. This compound yielded an IC50 in data set [1] (setting [4]) greater than 50 nM. For the same compound, in data set [2], the CC50 was greater than 100 µM.

`CCOc1ccc(/C=C\c2ccc3c(c2)ncn3-c2ccc(OC(C)C)cc2)cc1` [Compound 7d−Z, (Z)-5-(4-ethoxystyryl)-1-(4-isopropoxyphenyl)-1H-benzo[d]imidazole] came in with a melting point of 161 to 162 °C. The IC50 in data set [1] amounted to 13.6 nM. For the same compound, the IC50 in data set [1] (setting [4]) is no more than 15 nM. For the same compound, in data set [2], the CC50 was 17 µM. In data set [3], the Kd came out at 307 nM, the kd came out at 0.02 s⁻¹ and the kon is 86500 M⁻¹ s⁻¹.

Consider `COc1ccc(-n2cnc3cc(NCc4ccc(OC)c(O)c4)ccc32)cc1` [Compound 13a, 2-methoxy-5-(((1-(4-methoxyphenyl)-1H-benzo[d]imidazol-5-yl)amino)methyl)phenol], for which the melting point lay in the range of 182.1 to 183.3 °C. Moreover, 47.6 nM corresponded to half-maximal inhibition in data set [1] (setting [4]) (IC50). Moreover, the CC50 in data set [2] came to 62.6 µM. Further, in data set [3], binding was characterised by a dissociation constant (Kd) of 2780 nM, the kd is 0.03 s⁻¹ and the kon was found to be 13200 M⁻¹ s⁻¹.

In turn, `CC(C)Oc1ccc(-n2cnc3cc(/C=C/c4ccc(OC(F)F)cc4)ccc32)cc1` [Compound 7e−E, (E)-5-(4-(difluoromethoxy)styryl)-1-(4-isopropoxyphenyl)-1H-benzo[d]imidazole] yielded a melting point of 173 to 174 °C. The compound further showed an IC50 in data set [1] (setting [4]) greater than 50 nM. This compound came in with a CC50 in data set [2] greater than 100 µM.

The compound `CC(C)Oc1ccc(-n2cnc3cc(/C=C/c4ccc5ccccc5c4)ccc32)cc1` [Compound 7h−E, (E)-1-(4-isopropoxyphenyl)-5-(2-(naphthalen-2-yl)vinyl)-1H-benzo[d]imidazole] registered a melting point of 172 to 173 °C. In data set [1] (setting [4]), this compound displayed an IC50 greater than 50 nM. Further, in data set [2], the CC50 is greater than 100 µM.

For `COc1ccc(-n2cnc3cc(NCc4ccc(Cl)c(Cl)c4)ccc32)cc1` [Compound 13i, N-(3,4-dichlorobenzyl)-1-(4-methoxyphenyl)-1H-benzo[d]imidazol-5-amine], the melting point lay within 134.1 to 135.8 °C. In addition, in data set [1] (setting [4]), the IC50 turned out to be 53.1 nM. Moreover, the CC50 in data set [2] worked out at 81.7 µM. Moreover, in data set [3], binding was characterised by a dissociation constant (Kd) of 25400 nM, the kd is 0.49 s⁻¹ and the kon was 19400 M⁻¹ s⁻¹.

`Cc1ccc(/C=C\c2ccc3c(c2)ncn3-c2ccc(OC(C)C)cc2)cc1` [Compound 7c−Z, (Z)-1-(4-isopropoxyphenyl)-5-(4-methylstyryl)-1H-benzo[d]imidazole] had a melting point of 168 to 169 °C. The compound also registered an IC50 in data set [1] (setting [4]) of 36.9 nM. This compound gave a CC50 in data set [2] of 20.9 µM. In data set [3], the Kd amounted to 1180 nM, the kd turned out to be 0.07 s⁻¹ and the kon is 65600 M⁻¹ s⁻¹.

Consider `COc1ccc(-n2cnc3cc(NCc4ccc(C(F)(F)F)cc4)ccc32)cc1` [Compound 13j, 1-(4-methoxyphenyl)-N-(4-(trifluoromethyl)benzyl)-1H-benzo[d]imidazol-5-amine], for which the melting point lay in the range of 198.3 to 200.5 °C. In data set [1] (setting [4]), the IC50 was 63.8 nM. Moreover, the CC50 in data set [2] stood at 109 µM. Also, in data set [3], the affinity, expressed as Kd, was 5490 nM; the kd was determined as 0.04 s⁻¹; the kon worked out at 8530 M⁻¹ s⁻¹.

`COc1ccc(-n2cnc3cc(NCc4cccc(O)c4)ccc32)cc1` [Compound 13h, 3-(((1-(4-methoxyphenyl)-1H-benzo[d]imidazol-5-yl)amino)methyl)phenol] displayed a melting point of 182.9 to 184.3 °C. The compound also returned an IC50 in data set [1] (setting [4]) greater than 100 nM. In data set [2], this compound returned a CC50 of 40.3 µM. In data set [3], binding was put at a Kd of 36000 nM, the kd came out at 0.42 s⁻¹ and the kon amounted to 11900 M⁻¹ s⁻¹.

`COc1ccc(-n2cnc3cc(NCc4cc(OC)c(O)c(OC)c4)ccc32)cc1` [Compound 13e, 2,6-dimethoxy-4-(((1-(4-methoxyphenyl)-1H-benzo[d]imidazol-5-yl)amino)methyl)phenol] displayed a melting point of 115.7 to 118.1 °C. This compound displayed an IC50 in data set [1] (setting [4]) of 50.5 nM. In data set [2], this compound came in with a CC50 of 88.8 µM. In addition, in data set [3], the Kd stood at 4390 nM, the kd came out at 0.22 s⁻¹ and the kon came to 50300 M⁻¹ s⁻¹.

As for `CC(C)Oc1ccc(-n2cnc3cc(/C=C/c4ccc(OC(F)(F)F)cc4)ccc32)cc1` [Compound 7f−E, (E)-1-(4-isopropoxyphenyl)-5-(4-(trifluoromethoxy)styryl)-1H-benzo[d]imidazole], the melting point lay in the range of 160 to 162 °C. The same compound yielded an IC50 in data set [1] (setting [4]) greater than 50 nM. This compound also showed a CC50 in data set [2] greater than 100 µM.

Compound `COc1ccc(CNc2ccc3c(c2)ncn3-c2ccc(OC)cc2)cc1` [Compound 13g, N-(4-methoxybenzyl)-1-(4-methoxyphenyl)-1H-benzo[d]imidazol-5-amine] gave a melting point of 128 to 129.3 °C. The compound further gave an IC50 in data set [1] (setting [4]) of 55.4 nM. In addition, in data set [2], the CC50 was determined as 100 µM. Further, in data set [3], binding was characterised by a dissociation constant (Kd) of 4690 nM, the kd worked out at 0.30 s⁻¹ and the kon came out at 65900 M⁻¹ s⁻¹.

For the compound `CC(C)Oc1ccc(-n2cnc3cc(/C=C/c4ccc(C(F)(F)F)cc4)ccc32)cc1` [Compound 7g−E, (E)-1-(4-isopropoxyphenyl)-5-(4-(trifluoromethyl)styryl)-1H-benzo[d]imidazole], the melting point lay within 166 to 167 °C. Also, in data set [1] (setting [4]), the IC50 is greater than 50 nM. Also, the CC50 in data set [2] was greater than 100 µM.

`CC(C)Oc1ccc(-n2cnc3cc(/C=C/c4ccc(C#N)cc4)ccc32)cc1` [Compound 7b−E, (E)-4-(2-(1-(4-isopropoxyphenyl)-1H-benzo[d]imidazol-5-yl)vinyl) benzonitrile]: the melting point lay within 161 to 162 °C. This compound also gave an IC50 in data set [1] (setting [4]) greater than 50 nM. This compound registered a CC50 in data set [2] greater than 100 µM.

Compound `COc1ccc(-n2cnc3cc(NCc4ccc(C(C)C)cc4)ccc32)cc1` [ST−193, reference compound] came in with an IC50 in data set [1] (setting [4]) of 44.5 nM. For the same compound, in data set [2], the CC50 turned out to be 56.3 µM. In data set [3], the Kd is 200 nM, the kd is 0.01 s⁻¹ and the kon turned out to be 83200 M⁻¹ s⁻¹.

One may read the IC50 as the concentration that gives 50% inhibition. Read a high IC50 as a need for much substance. Usually melting point stands for the temperature, or range, at which the solid turns liquid. One may read the Kd as the concentration at which binding is half-saturated. Higher therefore signals lower affinity.
